Values joined by “and” are separate entries in the source; they are usually repeats but may differ in a detail not shown here. Equal values may be shown once. Where a name gives a salt, the structure may show the parent alone. Some results are limits rather than exact numbers.

The target in the first data set is muscarinic cholinergic receptor.
Experiment: not given
The class given is binding, rat. The conditions noted are these: rat cerebral cortex, ^3 H-QNB 0.25 nM, 25° C., 120 minutes, pH 7.4.
Broadly, the Ki is a dissociation constant, usually derived from enzyme kinetics or from competition with a known ligand. Read a high Ki as weaker binding. As for `CC(C)C(=O)O[C@@H]1CCN(CC#CCN(C)C)C1=O` [(R)-Porpanoic acid 2-methyl-1-[4-(dimethylamino)-2-butynyl]-2-oxo-3-pyrrolidinyl ester], affinity was put at a Ki of 711000 nM. `CC1CCN(CC#CCN(C)C)C1=O` (racemic) [Racemic 1-[4-(1-Dimethylamino)-2-butynyl]-3-methyl-2-pyrrolidinone] came in with a Ki of 21000 nM. Against the preceding compound, the Ki is about 34-fold lower. Compound `CN(C)CC#CCNC(=O)C(F)(F)F` [N-[4-Dimethylamino)-2-butynyl]-2,2,2-trifluoroacetamide monomhydrochloride] returned a Ki of over 100000 nM.

Regarding `CC(C)(C)[Si](C)(C)OC[C@@H]1CCCN1CC#CCN1CC[C@@H](O)C1=O` [[R-(R*,S*)]-1-[4-[2-[[[(1,1-dimethylethyl)dimethylsilyl]oxy]methyl]-1-pyrrolidinyl]-2-butynyl]-3-hydroxy-2-pyrrolidone], the Ki was found to be 500 nM. As for `CC(=O)O[C@H]1CCN(CC#CCN2CCC[C@H]2CO[Si](C)(C)C(C)(C)C)C1=O` [[S-(R*,R*)]-3-(Acetyloxy)-1-[4-[2-[[[(1,1-dimethylethyl)-dimethylsilyl]oxy]methyl]-1-pyrrolidinyl]-2-butynyl]-2-pyrrolidinone], the affinity, expressed as Ki, was 2600 nM.

The target is the same in the next data set. The data set can be described thus: [^3 H]-Cis-methyldioxolane (^3 H-CD) Binding Assay (High Affinity). The settings on record: rat cerebral cortex, ^3 H-CD 1.0 nM, 25° C., 120 minutes, pH 7.4; high affinity agonist binding.
Consider `CC(C)C(=O)O[C@@H]1CCN(CC#CCN(C)C)C1=O` [(R)-Porpanoic acid 2-methyl-1-[4-(dimethylamino)-2-butynyl]-2-oxo-3-pyrrolidinyl ester], for which the Ki is 26000 nM. On the same count and under the same terms, the value for `CC1CCN(CC#CCN(C)C)C1=O` (racemic) [Racemic 1-[4-(1-Dimethylamino)-2-butynyl]-3-methyl-2-pyrrolidinone] was 410 nM; that for `CN(C)CC#CCNC(=O)C(F)(F)F` [N-[4-Dimethylamino)-2-butynyl]-2,2,2-trifluoroacetamide monomhydrochloride] was 6100 nM; that for `CC(C)(C)[Si](C)(C)OC[C@@H]1CCCN1CC#CCN1CC[C@@H](O)C1=O` [[R-(R*,S*)]-1-[4-[2-[[[(1,1-dimethylethyl)dimethylsilyl]oxy]methyl]-1-pyrrolidinyl]-2-butynyl]-3-hydroxy-2-pyrrolidone] was 470 nM. For the compound `CC(=O)O[C@H]1CCN(CC#CCN2CCC[C@H]2CO[Si](C)(C)C(C)(C)C)C1=O` [[S-(R*,R*)]-3-(Acetyloxy)-1-[4-[2-[[[(1,1-dimethylethyl)-dimethylsilyl]oxy]methyl]-1-pyrrolidinyl]-2-butynyl]-2-pyrrolidinone], the Ki was 79 nM.

The subject of a further data set is peripheral acetylcholine-like effects. As to the kind of experiment: Side effect profile: in vivo overt effects (salivation, tremor, diarrhea) after oral administration. The settings on record: (rat) po. The arrangement: species or system rat. An excerpt:
The use of the radioligand binding assays (^3 H-QNB and ^3 H-CD) to characterize the hydroxylated oxotremorine derivatives provides a useful first approximation for,the evaluation of the muscarinic agonist-like profile of a test compound. However, in using a prodrug methodology, intrinsic activity will not be observed until in vivo hydrolysis or metabolism to the active compound occurs. Therefore, radioligand binding data, performed on the carbonyl derivatives, will not provide leading information. As a result, the observed overt effects after oral administration to rats of the test carbonyl derivative, relative to its corresponding hydroxylated oxotremorine compound, became the primary in vivo pharmacological measure. These in vivo overt effects are attributed to the peripheral acetylcholine-like effects of the compound, such as salivation, tremor and diarrhea. The in vivo overt effects also providing dosing information for the behavioral tests of cognitive improvement.
Take `CCCCCCNC(=O)O[C@@H]1CCN(CC#CCN2CCCC2)C1=O` [(R)-Hexylcarbamic acid 2-oxo-1-[4-(1-pyrrolidinyl)-2-butynyl]-3-pyrrolidinyl ester]: the “Side Effect Profile minimum effective dose (MED)” value is reported as over 450 μ mol/kg.

With `CCCCCCCC(=O)O[C@H]1CCN(CC#CCN2CCCC2)C1=O`, the “Side Effect Profile minimum effective dose (MED)” value was determined as 14 μ mol/kg.

`CCCCCCCC(=O)O[C@H]1CCN(CC#CCN(C)C)C1=O` [(S)-Octanoic acid 1-[4-(dimethylamino)-2-butynyl]-2-oxo-3-pyrrolidinyl ester]: the “Side Effect Profile minimum effective dose (MED)” value was 8.0 μ mol/kg. The same measure, in the same setting: under `CCCCCC(=O)O[C@H]1CCN(CC#CCN(C)C)C1=O` [(S)-Hexanoic acid 1-[4-(dimethylamino)-2-butynyl]-2-oxo-3-pyrrolidinyl ester] stands 5.9 μ mol/kg; under `CCCCCCOC(=O)O[C@@H]1CCN(CC#CCN2CCCC2)C1=O` [(R)-2-Oxo-1-[4-(1-pyrrolidinyl)-2-butynyl]-3-pyrrolidinyl carbonic acid hexyl ester], 7 μ mol/kg. On the same count and under the same terms, under `CCCCCC(=O)O[C@@H]1CCN(CC#CCN(C)C)C1=O` [(R)-Hexanoic acid 1-[4-(dimethylamino)-2-butynyl]-2-oxo-3-pyrrolidinyl ester] stands 255 μ mol/kg.

In the case of `CCCCCCCCOC(=O)O[C@H]1CCN(CC#CCN2CCCC2)C1=O` [(S)-2-Oxo-1-[4-(1-pyrrolidinyl)-2-butynyl]-3-pyrrolidinyl carbonic acid octyl ester], the “Side Effect Profile minimum effective dose (MED)” value is given as 28 μ mol/kg. For the compound `CCCCNC(=O)O[C@@H]1CCN(CC#CCN(C)C)C1=O` [(R)-Butylcarbamic acid 1-[4-(dimethylamino)-2-butynyl]-2-oxo-3-pyrrolidinyl ester], the “Side Effect Profile minimum effective dose (MED)” value is over 340 μ mol/kg. Regarding `CCCC(=O)O[C@H]1CCN(CC#CCN2CCCC2)C1=O` [(S)-Butanoic acid 2-oxo-1-[4-(1-pyrrolidinyl)-2-butynyl]-3-pyrrolidinyl ester], the “Side Effect Profile minimum effective dose (MED)” value was determined as 1.7 μ mol/kg. Still for that read-out and setting: the value for `CCCCCC(=O)O[C@@H]1CCN(CC#CCN2CCCC2)C1=O` [(R)-Hexanoic acid 2-oxo-1-[4-(1-pyrrolidinyl)-2-butynyl]-3-pyrrolidinyl ester] was 7.0 μ mol/kg; that for `CCCCCC(=O)O[C@H]1CCN(CC#CCN2CCCC2)C1=O` [(S)-Hexanoic acid 2-oxo-1-[4-(1-pyrrolidinyl)-2-butynyl]-3-pyrrolidinyl ester] was 1.8 μ mol/kg; that for `CCCCCCCC(=O)O[C@@H]1CCN(CC#CCN(C)C)C1=O` [(R)-Octanoic acid 1-[4-(dimethylamino)-2-butynyl]-2-oxo-3-pyrrolidinyl ester] was 508 μ mol/kg. On the same count and under the same terms, under `CCNC(=O)O[C@@H]1CCN(CC#CCN(C)C)C1=O` [(R)-Ethylcarbamic acid 1-[4-(dimethylamino)-2-butynyl]-2-oxo-3-pyrrolidinyl ester] stands over 510 μ mol/kg; under `CCNC(=O)O[C@H]1CCN(CC#CCN(C)C)C1=O` [(S)-Ethylcarbamic acid 1-[4-(dimethylamino)-2-butynyl]-2-oxo-3-pyrrolidinyl ester], over 510 μ mol/kg. For `CCCCCCCC(=O)O[C@@H]1CCN(CC#CCN2CCCC2)C1=O` [(R)-Octanoic acid 2-oxo-1-[4-(1-pyrrolidinyl)-2-butynyl]-3-pyrrolidinyl ester], the “Side Effect Profile minimum effective dose (MED)” value was 14 μ mol/kg. Consider `CCCC(=O)O[C@H]1CCN(CC#CCN(C)C)C1=O` [(S)-Butanoic acid 1-[4-(dimethylamino)-2-butynyl]-2-oxo-3-pyrrolidinyl ester], for which the “Side Effect Profile minimum effective dose (MED)” value stood at 8.0 μ mol/kg. Still for that read-out and setting: under `CCCCCCNC(=O)O[C@H]1CCN(CC#CCN(C)C)C1=O` [(S)-Hexylcarbamic acid 1-[4-(dimethylamino)-2-butynyl]-2-oxo-3-pyrrolidinyl ester] stands over 510 μ mol/kg.

For `CCCCNC(=O)O[C@H]1CCN(CC#CCN(C)C)C1=O` [(S)-Butylcarbamic acid 1-[4-(dimethylamino)-2-butynyl]-2-oxo-3-pyrrolidinyl ester], the “Side Effect Profile minimum effective dose (MED)” value is recorded as over 493 μ mol/kg. As for `CCOC(=O)O[C@H]1CCN(CC#CCN2CCCC2)C1=O` [(S)-2-Oxo-1-[4-(1-pyrrolidinyl)-2-butynyl]-3-pyrrolidinyl carbonic acid ethyl ester], the “Side Effect Profile minimum effective dose (MED)” value came to 1.7 μ mol/kg.

For the compound `CCCCCCCCNC(=O)O[C@H]1CCN(CC#CCN(C)C)C1=O` [(S)-Octylcarbamic acid 1-[4-(dimethylamino)-2-butynyl]-2-oxo-3-pyrrolidinyl ester], the “Side Effect Profile minimum effective dose (MED)” value is on record as over 520 μ mol/kg.

Consider `CCNC(=O)O[C@H]1CCN(CC#CCN2CCCC2)C1=O` [(S)-Ethylcarbamic acid 2-oxo-1-[4-(1-pyrrolidinyl)-2-butynyl]-3-pyrrolidinyl ester], for which the “Side Effect Profile minimum effective dose (MED)” value was over 490 μ mol/kg. On the same count and under the same terms, under `CCNC(=O)O[C@@H]1CCN(CC#CCN2CCCC2)C1=O` [(R)-Ethylcarbamic acid 2-oxo-1-[4-(1-pyrrolidinyl)-2-butynyl]-3-pyrrolidinyl ester] stands 28 μ mol/kg; under `CCCCCCCCNC(=O)O[C@H]1CCN(CC#CCN2CCCC2)C1=O` [(S)-Octylcarbamic acid 2-oxo-1-[4-(1-pyrrolidinyl)-2-butynyl]-3-pyrrolidinyl ester], over 450 μ mol/kg; under `CCCCCCNC(=O)O[C@H]1CCN(CC#CCN2CCCC2)C1=O` [(S)-Hexylcarbamic acid 2-oxo-1-[4-(1-pyrrolidinyl)-2-butynyl]-3-pyrrolidinyl ester], over 450 μ mol/kg. On the same count and under the same terms, under `CCCC(=O)O[C@@H]1CCN(CC#CCN(C)C)C1=O` [(R)-Butanoic acid 1-[4-(dimethylamino)-2-butynyl]-2-oxo-3-pyrrolidinyl ester] stands 127 μ mol/kg. In the case of `CCOC(=O)O[C@@H]1CCN(CC#CCN(C)C)C1=O` [(R)-1-[4-(Dimethylamino)-2-butynyl]-2-oxo-3-pyrrolidinyl carbonic acid ethyl ester], the “Side Effect Profile minimum effective dose (MED)” value is 127 μ mol/kg and 254 μ mol/kg.

As for `CCCCOC(=O)O[C@H]1CCN(CC#CCN2CCCC2)C1=O` [(S)-2-Oxo-1-[4-(1-pyrrolidinyl)-2-butynyl]-3-pyrrolidinyl carbonic acid butyl ester], the “Side Effect Profile minimum effective dose (MED)” value was determined as 0.9 μ mol/kg. The same measure, in the same setting: under `CCCC(=O)O[C@@H]1CCN(CC#CCN2CCCC2)C1=O` [(R)-Butanoic acid 2-oxo-1-[4-(1-pyrrolidinyl)-2-butynyl]-3-pyrrolidinyl ester] stands 7.2 μ mol/kg; under `CCCCCCCCCC(=O)O[C@H]1CCN(CC#CCN2CCCC2)C1=O` [(S)-Decanoic acid 2-oxo-1-[4-(1-pyrrolidinyl)-2-butynyl]-3-pyrrolidinyl ester], 14 μ mol/kg. Same read-out and setting: under `CCCCNC(=O)O[C@@H]1CCN(CC#CCN2CCCC2)C1=O` [(R)-Butylcarbamic acid 2-oxo-1-[4-(1-pyrrolidinyl)-2-butynyl]-3-pyrrolidinyl ester] stands over 243 μ mol/kg.

Turning to `CCOC(=O)O[C@H]1CCN(CC#CCN(C)C)C1=O` [(S)-1-[4-(Dimethylamino)-2-butynyl]-2-oxo-3-pyrrolidinyl carbonic acid ethyl ester], the “Side Effect Profile minimum effective dose (MED)” value was 2.2 μ mol/kg. Still for that read-out and setting: under `CCCCOC(=O)O[C@@H]1CCN(CC#CCN2CCCC2)C1=O` [(R)-2-Oxo-1-[4-(1-pyrrolidinyl)-2-butynyl]-3-pyrrolidinyl carbonic acid butyl ester] stands 14 μ mol/kg.

Still in this data set, the particulars now being: (rat) po; listed as R)-1-[4-(Dimethylamino)-2-butynyl]-2-oxo-3-pyrrolidinyl carbonic acid ethyl este.
On to `CCOC(=O)O[C@@H]1CCN(CC#CCN(C)C)C1=O` [(R)-1-[4-(Dimethylamino)-2-butynyl]-2-oxo-3-pyrrolidinyl carbonic acid ethyl ester], for which the “Side Effect Profile minimum effective dose (MED)” value was 258 μ mol/kg.

The record behind these values is patent publication US5637731A (priority 1996, dated 1997).
